ChEMBL document CHEMBL1201862, “PubChem BioAssay data set” (2004)
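Method: 48-hour compound exposure of cells in 96-well plates, five concentrations, linear interpolation of endpoints. GI50 marks 50% less growth.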 The source made the active and inactive calls. Rule as the data show it: active = GI50 up to about 1.1 µM and inactive = higher.

Assays:
Experiment in all cases: NCI tumour cell line growth inhibition, 48 h
[1] = system: ACHN
[2] = system: HOP-62
[3] = system: EKVX
[4] = system: SNB-75
[5] = system: SF-295
[6] = system: SK-OV-3
[7] = system: SK-MEL-5
[8] = system: NCI-H522
[9] = system: UACC-62
[10] = system: DMS-273
[11] = system: KM-20L2
[12] = system: IGROV-1
[13] = system: TK-10
[14] = system: HT-29
[15] = system: HCT-15
[16] = system: COLO 205
[17] = system: NCI-H226
[18] = system: M14
[19] = system: SF-268
[20] = system: DLD-1
[21] = system: HOP-92
[22] = system: OVCAR-3
[23] = system: A549
[24] = system: SK-MEL-28
[25] = system: SNB-19
[26] = system: HCC 2998
[27] = system: NCI-H460
[28] = system: UO-31
[29] = system: HL-60
[30] = system: SF-539
[31] = system: CCRF-CEM
[32] = system: M19-MEL
[33] = system: SN12C
[34] = system: HCT-116
[35] = system: KM12
[36] = system: UACC-257
[37] = system: LXFL 529
[38] = system: NCI-H23
[39] = system: MOLT-4
[40] = system: CAKI-1
[41] = system: OVCAR-5
[42] = system: SNB-78
[43] = system: SR
[44] = system: Malme-3M
[45] = system: SW-620
[46] = system: OVCAR-4
[47] = system: K562
[48] = system: U-251
[49] = system: DMS-114
[50] = system: MDA-MB-435
[51] = system: MDA-N
[52] = system: PC-3
[53] = system: SK-MEL-2
[54] = system: T47D
[55] = system: Hs-578T
[56] = system: OVCAR-8
[57] = system: LOX IMVI
[58] = system: RPMI-8226
[59] = system: BT-549
[60] = system: NCI/ADR-RES
[61] = system: MDA-MB-231
[62] = system: MCF7
[63] = system: RXF 393
[64] = system: 786-0
[65] = system: A498
[66] = system: DU-145

C=CCc1cc(OC)c2c(c1)C(OC(C)=O)CC(c1ccc(OC)c(OC)c1)O2 (configuration not stated)
GI50 [1]: > 100 µM (inactive) | GI50 [2]: 45.4 µM (inactive) | GI50 [3]: > 100 µM (inactive) | GI50 [4]: 17.1 µM (inactive) | GI50 [5]: 67.3 µM (inactive) | GI50 [6]: > 100 µM (inactive) | GI50 [7]: > 100 µM (inactive) | GI50 [8]: > 100 µM (inactive) | GI50 [9]: > 100 µM (inactive) | GI50 [10]: > 100 µM (inactive) | GI50 [11]: > 100 µM (inactive) | GI50 [12]: > 100 µM (inactive) | GI50 [13]: 63.1 µM (inactive) | GI50 [14]: > 100 µM (inactive) | GI50 [15]: > 100 µM | GI50 [16]: > 100 µM (inactive) | GI50 [17]: > 100 µM (inactive) | GI50 [18]: > 100 µM (inactive) | GI50 [19]: > 100 µM (inactive) | GI50 [20]: > 100 µM (inactive) | GI50 [21]: 23.4 µM (inactive) | GI50 [22]: > 100 µM (inactive) | GI50 [23]: > 100 µM (inactive) | GI50 [24]: > 100 µM (inactive) | GI50 [25]: 49.4 µM (inactive) | GI50 [26]: > 100 µM (inactive) | GI50 [27]: > 100 µM (inactive) | GI50 [28]: > 100 µM (inactive) | GI50 [29]: > 100 µM (inactive) | GI50 [30]: 47.4 µM (inactive) | GI50 [31]: > 100 µM (inactive) | GI50 [32]: > 100 µM (inactive) | GI50 [33]: > 100 µM (inactive) | GI50 [34]: > 100 µM (inactive) | GI50 [35]: > 100 µM (inactive) | GI50 [36]: > 100 µM (inactive) | GI50 [37]: > 100 µM (inactive) | GI50 [38]: 46.7 µM (inactive) | GI50 [39]: > 100 µM (inactive) | GI50 [40]: > 100 µM (inactive) | GI50 [41]: > 100 µM (inactive) | GI50 [42]: > 100 µM (inactive) | GI50 [43]: > 100 µM (inactive) | GI50 [44]: > 100 µM (inactive) | GI50 [45]: > 100 µM (inactive) | GI50 [46]: > 100 µM (inactive) | GI50 [47]: > 100 µM (inactive) | GI50 [48]: 60.5 µM (inactive) | GI50 [49]: > 100 µM (inactive)

CO/C(=N\N=C\c1cccc(C(F)(F)F)c1)c1ccncc1
GI50 [50]: 2.32 µM (inactive) | GI50 [1]: 8.13 µM (inactive) | GI50 [2]: 2.93 µM (inactive) | GI50 [3]: 13.8 µM (inactive) | GI50 [4]: 15.5 µM (inactive) | GI50 [5]: 1.76 µM (inactive) | GI50 [6]: 6.89 µM (inactive) | GI50 [7]: 11.4 µM (inactive) | GI50 [8]: 5.45 µM (inactive) | GI50 [9]: 4.28 µM (inactive) | GI50 [12]: 10 µM (inactive) | GI50 [51]: 2.13 µM (inactive) | GI50 [52]: 40.7 µM (inactive) | GI50 [13]: 17.5 µM (inactive) | GI50 [14]: 4.62 µM (inactive) | GI50 [15]: 2.45 µM | GI50 [16]: 13.5 µM (inactive) | GI50 [17]: 3.56 µM (inactive) | GI50 [53]: 2.89 µM (inactive) | GI50 [18]: 6.3 µM (inactive) | GI50 [54]: 37.2 µM (inactive) | GI50 [19]: 8.05 µM (inactive) | GI50 [55]: 5.93 µM (inactive) | GI50 [21]: 23.3 µM (inactive) | GI50 [22]: 10.7 µM (inactive) | GI50 [56]: 9.46 µM (inactive) | GI50 [23]: 8.09 µM (inactive) | GI50 [57]: 7.76 µM (inactive) | GI50 [24]: 24.3 µM (inactive) | GI50 [58]: 2.37 µM (inactive) | GI50 [25]: 9.08 µM (inactive) | GI50 [26]: 6.41 µM (inactive) | GI50 [27]: 4.97 µM (inactive) | GI50 [28]: 4.47 µM (inactive) | GI50 [29]: 2.83 µM (inactive) | GI50 [30]: 4.67 µM (inactive) | GI50 [31]: 4.62 µM (inactive) | GI50 [33]: 3.67 µM (inactive) | GI50 [59]: 7.13 µM (inactive) | GI50 [34]: 5.52 µM (inactive) | GI50 [35]: 5.19 µM (inactive) | GI50 [36]: 14 µM (inactive) | GI50 [60]: 1.82 µM (inactive) | GI50 [38]: 12 µM (inactive) | GI50 [61]: 7.14 µM (inactive) | GI50 [39]: 5.21 µM (inactive) | GI50 [40]: 1.8 µM (inactive) | GI50 [41]: 32.5 µM (inactive) | GI50 [62]: 2.52 µM (inactive) | GI50 [43]: 5.75 µM (inactive) | GI50 [63]: 6.64 µM (inactive) | GI50 [64]: 5.77 µM (inactive) | GI50 [44]: 4.6 µM (inactive) | GI50 [45]: 4.6 µM (inactive) | GI50 [46]: 41 µM (inactive) | GI50 [47]: 3.94 µM (inactive) | GI50 [65]: 9.91 µM (inactive) | GI50 [48]: 5.14 µM (inactive) | GI50 [66]: 7.85 µM (inactive)

Nc1nc(SCc2ccccc2Cl)c2[nH]cnc2n1
GI50 [1]: 31.5 µM (inactive) | GI50 [2]: 25.5 µM (inactive) | GI50 [3]: 85.9 µM (inactive) | GI50 [5]: 58.6 µM (inactive) | GI50 [6]: 24.7 µM (inactive) | GI50 [7]: 48.8 µM (inactive) | GI50 [8]: 56.4 µM (inactive) | GI50 [9]: 61 µM (inactive) | GI50 [10]: 41 µM (inactive) | GI50 [11]: > 100 µM (inactive) | GI50 [12]: 41.8 µM (inactive) | GI50 [13]: 18.8 µM (inactive) | GI50 [15]: 51.5 µM | GI50 [16]: 91.6 µM (inactive) | GI50 [53]: 80.4 µM (inactive) | GI50 [18]: > 100 µM (inactive) | GI50 [19]: 58.7 µM (inactive) | GI50 [20]: 69 µM (inactive) | GI50 [22]: 97.7 µM (inactive) | GI50 [56]: 55.7 µM (inactive) | GI50 [23]: 73.1 µM (inactive) | GI50 [57]: 44.2 µM (inactive) | GI50 [24]: 68.9 µM (inactive) | GI50 [58]: > 100 µM (inactive) | GI50 [25]: 70.1 µM (inactive) | GI50 [26]: > 100 µM (inactive) | GI50 [27]: 48.9 µM (inactive) | GI50 [28]: 77.6 µM (inactive) | GI50 [29]: 36.4 µM (inactive) | GI50 [30]: 74.8 µM (inactive) | GI50 [31]: 54.5 µM (inactive) | GI50 [32]: > 100 µM (inactive) | GI50 [33]: 72.3 µM (inactive) | GI50 [34]: 59.8 µM (inactive) | GI50 [35]: 74.3 µM (inactive) | GI50 [36]: 56 µM (inactive) | GI50 [37]: 62.1 µM (inactive) | GI50 [38]: 66.1 µM (inactive) | GI50 [39]: 34.6 µM (inactive) | GI50 [41]: 96.4 µM (inactive) | GI50 [42]: > 100 µM (inactive) | GI50 [43]: 64.9 µM (inactive) | GI50 [63]: 23.1 µM (inactive) | GI50 [44]: 70.8 µM (inactive) | GI50 [45]: > 100 µM (inactive) | GI50 [47]: 50.2 µM (inactive) | GI50 [65]: 15 µM (inactive) | GI50 [48]: 65.3 µM (inactive) | GI50 [49]: 40.8 µM (inactive)
